Data on eight molecules can be found in patent publication US5837728A, “9-cis retinoic acid esters and amides and uses thereof” (priority 1995, dated 1998).

In experiment [1] the test system is ornithine decarboxylase (ODC). The experiment in a line: ODC/Retinoid Bioassay: inhibition of TPA induced ornithine decarboxylase activity. In kind it is in vivo, CD-1 mice. The settings on record: for ODC activity reduction: topical, 1.7 nM (as printed in Table 2), TPA induced. The protocol:
The ODC/Retinoid Bioassay is based on the method of Verma, A. K. and Boutwell, R. K., Cancer Res. (1977) 37:2196-2201. The ODC assay measures a compounds effect on the prevention of the induction of ODC, namely the effect of the retinoid compound on the inhibition of the tumor promoter 12-O-tetradecanoylphorbol-13-acetate (TPA) induced ODC activity. The assay is carried out using CD-1 mice (aged 7 to 9 weeks). The dorsal hair of the mice is shaved 3-4 days before testing. Four mice are used for each point. The test retinoids, at one of two dose levels (1.7 and 17 nmoles) dissolved in 0.2 ml of acetone is applied topically to the back of each shaved mouse. A single dose of TPA ([…]) is applied to the back of each treated mouse 30 minutes later. Control groups are treated with either acetone alone, TPA, or tretinoin. The mice are sacrificed by cervical dislocation 5 hours after TPA treatment.
The dorsal skin encompassing the shaved and TPA exposed area is excised and placed in a 100 ml beaker containing distilled water maintained at 51° C.-57° C. The skin is soaked for 50-70 seconds at this temperature with intermittent stirring. The skin is placed epidermis side up in a chilled (0°-5° C.) stainless steel plate and the epidermal layer is scraped off with a razor blade. The epidermal layers from the 4 mice are pooled and placed in a homogenization tube with 2 ml of ODA buffer ([…] with […] pyridoxal phosphate, […] ethylenediaminetetraacetic acid (EDTA), 1 mM dithiothreitol, pH 7.5). The pooled epidermal layers are homogenized for 15 seconds at 0° C. using a Polytron homogenizer at a setting of 7.5. The homogenate is centrifuged at 30,000×g and the supernatant fraction is pipetted into a storage tube and frozen for about 72 hours.
The homogenate is assayed for ODC activity as described by Verma and Boutwell to measure the release of ^14 CO2 from labeled DL(1-14C) ornithine. Incubations are carried out in disposable centrifuge tubes with center well holders containing filter paper impregnated with sodium hydroxide to absorb ^14 CO2. The incubation mixture consisted of 90 μl of L-ornithine, 350 μl of ODC buffer, 100 μl of 14C-ornithine (1.32 nm, Sp. Act:4.4 pCi/pM) and 10 μl of test sample. After incubation at 37° C. for 45 minutes, 0.5 ml of 2M chilled citric acid (4° C.) is added and incubation is continue for an additional 30 minutes to insure complete absorption of ^14 CO2. The filter paper is removed from the center well holders and set in 1 ml of water in capped scintillation vials for at least 1 hour before adding RBI 3820 scintillation cocktail. Radioactivity is measured in a Tri Carb Scintillation Counter. Results are expressed as pmol of ^14 CO2 released in 30 minutes per milligram of protein based on the specific activity of DL-14C-ornithine. The results are expressed in Table 2 below as the % reduction in ODC activity as compared to the control, for the compounds of each of the preceding Examples: […]

Experiment [2] deals with Human neonatal foreskin keratinocytes. The experiment in a line: Growth of human neonatal foreskin keratinocytes (cell number). The format is cell-based. As to conditions: for Number of keratinocytes, KGM / Number of keratinocytes, KMB: three days. An excerpt: (§1) Human neonatal foreskin keratinocytes and human neonatal foreskin fibroblasts were isolated and grown in monlayer culture. Culture medium for keratinocytes was Keratincyte Growth Medium (KGM) from Clonetics, Inc., San Diego. Calif. The culture medium for fibroblasts was Dulbecco's Modified Eagle's Medium (DMEM) supplemented with non-essential amino acids and 10% fetal bovine serum. The culture medium was obtained from GIBCO, Grand Island, N.Y. and the FBS was from Hyclone Labs, Inc., Logan, Utah.
Cells at passage 2-4 were plated in wells of a 24 well dish at approximately 5×10^4 cells per well in their respective culture medium. Incubation was at 37° C. with 5% CO2. After the cells attached and spread overnight, they were washed two times in serum-free keratincyte basal medium (KBM) and incubated in 1 ml of KBM or in 1 ml of KGM. Compound IV was added in varying concentrations to the wells. […] The cells were incubated for an additional two days for fibroblasts and three days for keratinocytes, and were then harvested and counted.

Experiment [3] relates to Human neonatal foreskin fibroblasts. The experiment in a line: Growth of human neonatal foreskin fibroblasts (cell number). In kind it is cell-based. As to conditions: for Number of fibroblasts: two days.
Description: as §1
Cells at passage 2-4 were plated in wells of a 24 well dish at approximately 5×10^4 cells per well in their respective culture medium. Incubation was at 37° C. with 5% CO2. After the cells attached and spread overnight, they were washed two times in serum-free keratincyte basal medium (KBM) and incubated in 1 ml of KBM or in 1 ml of KGM. Compound IV was added in varying concentrations to the wells. All-trans-retinoic acid (or no treatment) was added to control wells. The cells were incubated for an additional two days for fibroblasts and three days for keratinocytes, and were then harvested and counted. The effect of IV and of the controls are shown for both cell types in Tables 9 and 10: […]

For experiment [4], the system named is pseudocomedone (utriculus) of the rhino mouse. The experiment in a line: Topical rhino mouse pseudocomedone (utriculus) reduction assay. The format is in vivo. Also on record: Utriculus reduction (Table 1) / Utriculus reduction (Table 3): key to the marks not given beside the values. The settings on record: concentration 0.1 (unit not given). The protocol:
A topical assay to test for pseudocomedone (utriculus) reduction in the rhino mouse is conducted.
Each test compound and a vehicle control is applied topically to the dorsal trunk of the rhino mouse. The utriculus diameters are measured with a ocular micrometer. […] Kligman, et al., The Effect on Rhino Mouse Skin of Agents which Influence Keratinization and Exfoliation, J. Invest. Derm. […] Van Scott, Experimental Animal Integumental Models for Screening Potential Dermatologic Drugs, In Pharmacology of the Skin, eds. […] Mann, Hair Loss and Cyst Formation in Hairless and Rhino Mutant Mice, Anat. Rec. […] Mezick, et al., Topical and Systemic Effects of Retinoids on Horn-Filled Utriculus Size in the Rhino Mouse. A Model to Quantify Antikeratinizing Effects of Retinoids, J. Invest. Derm. […] Mezick, et al., Anti-Acne Activity of Retinoids in the Rhino Mouse, In Models in Dermatology, eds.
(§2) The dorsal trunk of the rhino mouse is the test site. Each test compound is dissolved in alcohol:propylene glycol (70:30, v:v) or other suitable vehicle and topically applied (0.1 ml) to the dorsal trunk once daily, five consecutive days/week for two weeks. Also, administration may be oral (p.o.) in a suitable vehicle. Following treatment, the animals are sacrificed by cervical dislocation. The treated dorsal trunk skin is removed from the animal and placed into 0.5% acetic acid for up to 18 hours at approximately 4° C. After this, the epidermis with the acne cysts is separated from the underlying dermis. The sheets of epidermis are processed by routine methods to permanent whole mounts for microscopic examination. Also, full-thickness samples may be taken, stained (H&E), and examined by light microscopy.
The utriculus diameters are measured with an ocular micrometer to compare effects of test compounds to vehicle control and/or reference compound on cyst reduction. Light microscopy is used to determine effects on cell differentiation.
Another topical assay is conducted following the procedure described above.
Each test compound and a vehicle control was applied topically to the dorsal trunk of the rhino mouse. The utriculus diameters are measured with a ocular micrometer. […] Kligman, et al., J. Invest. […] Van Scott, Pharmacology of the Skin, eds. […] Mann, Anat. […] Mezick, et al, J. Invest. […] Mezick et al., Models in Dermatology, eds.
as §2, with “(70:30,v:v)” for “(70:30, v:v)”, “weeks.” for “weeks. Also, administration may be oral (p.o.) in a suitable vehicle.”, “"acne cysts"” for “acne cysts”, “are” for “may be”, “(H&E)” for “(H&E),”, “microscope.” for “microscopy.”

Take `CCCCCCCC/C=C\CCCCCCCC(=O)OCC(COC(=O)/C=C(C)/C=C/C=C(C)\C=C\C1=C(C)CCCC1(C)C)OC(=O)CCCCCCC/C=C\CCCCCCCC` (stereo not drawn) [Compound 9, 1-(9-cis-retinoyloxy)-2,3-dioleoylpropane]: in experiment [1], the ODC activity reduction result is reported as “++”.

As for `CC1=C(/C=C/C(C)=C\C=C\C(C)=C\C(=O)OCC(=O)C(C)(C)C)C(C)(C)CCC1` [Compound IV], the “Number of keratinocytes, KGM” value in experiment [2] (0.10 μg/ml) was 27.4 ± 0.1 × 10^4 cells; in experiment [2] (0.25 μg/ml) it was 25.9 ± 0.4 × 10^4 cells; in experiment [2] (0.5 μg/ml), 22.5 ± 0.1 × 10^4 cells; in experiment [2] (1.0 μg/ml) it was 21.2 ± 0.8 × 10^4 cells; in experiment [2] (5.0 μg/ml), 6.4 ± 0.1 × 10^4 cells; in experiment [2] (10.0 μg/ml), 4.5 ± 0.2 × 10^4 cells. The “Number of keratinocytes, KMB” value in experiment [2] (0.10 μg/ml) is reported as 13.1 ± 0.5 × 10^4 cells; in experiment [2] (0.5 μg/ml), 13.8 ± 2.4 × 10^4 cells; in experiment [2] (1.0 μg/ml) it was 14.0 ± 0.9 × 10^4 cells; in experiment [2] (5.0 μg/ml), 11.2 ± 1.2 × 10^4 cells; in experiment [2] (10.0 μg/ml), 8.4 ± 0.2 × 10^4 cells. Also, the “Effect on keratinocytes (summary of Tables 9 and 10)” value in experiment [2] (compared with retinoic acid) is on record as “potent "retinoid" effect on keratinocytes”. Besides, the Number of fibroblasts in experiment [3] (0.1 μg/ml) was 6.4 ± 0.6 × 10^4 cells; in experiment [3] (0.25 μg/ml) it was 5.8 ± 0.1 × 10^4 cells; in experiment [3] (0.5 μg/ml), 5.5 ± 0.8 × 10^4 cells; in experiment [3] (1.0 μg/ml), 7.9 ± 0.1 × 10^4 cells; in experiment [3] (5.0 μg/ml), 8.5 ± 0.6 × 10^4 cells; in experiment [3] (10.0 μg/ml), 7.5 ± 0.9 × 10^4 cells. Also, the “Effect on fibroblasts (summary of Tables 9 and 10)” value in experiment [3] (compared with retinoic acid) was “less active result with fibroblasts”.

In the case of `CC1=C(/C=C/C(C)=C\C=C\C(C)=C\C(=O)OCC(=O)c2ccccc2)C(C)(C)CCC1` [Compound 5, 9-cis-retinoyloxy methyl phenyl ketone], the “Utriculus reduction (Table 3)” value in experiment [4] is listed as “++”. Also, in experiment [1], the ODC activity reduction result was “++”.

Regarding `CC1=C(/C=C/C(C)=C\C=C\C(C)=C\C(=O)ON2C(=O)CCC2=O)C(C)(C)CCC1` [Compound 10, Succinimidyl 9-cis-retinoate], the “Utriculus reduction (Table 3)” value in experiment [4] was “++”. Besides, the ODC activity reduction entry in experiment [1] was “+++”.

Consider `CC1=C(/C=C/C(C)=C\C=C\C(C)=C\C(=O)OCOC(=O)C(C)(C)C)C(C)(C)CCC1` [Compound 6, 9-cis-retinoyloxymethyl 2,2-dimethylpropanoate], for which the “Utriculus reduction (Table 3)” value in experiment [4] is “+++”. For the same molecule, in experiment [1], the ODC activity reduction entry is on record as “+++”.

As to `CC1=C(/C=C/C(C)=C\C=C\C(C)=C\C(=O)OCC(=O)COC(=O)/C=C(C)/C=C/C=C(C)\C=C\C2=C(C)CCCC2(C)C)C(C)(C)CCC1` [Compound 4, 1,3-bis-(9-cis-retinoyloxy)-2-propanone], the ODC activity reduction result in experiment [1] is “+++”.

For `CC1=C(/C=C/C(C)=C\C=C\C(C)=C\C(=O)OCC(=O)CO)C(C)(C)CCC1` [Compound 8, 1-(9-cis-retinoyloxy)-3-hydroxy-2-propanone], the ODC activity reduction entry in experiment [1] is given as “+++”.

Take `CCCCCCCCCCCCCC(=O)O[C@@H]1[C@@H](C)[C@@]2(O)[C@@H](C=C(CO)C[C@]3(O)C(=O)C(C)=C[C@@H]23)[C@@H]2C(C)(C)[C@]12OC(C)=O` [TPA, 12-O-tetradecanoylphorbol-13-acetate, reference compound]: the “ODC activity reduction (TPA control)” value in experiment [1] (TPA 17.0 nM, control) was 0 nM ^14 CO2 /30 min/mg Protein.
